# Experimental data taken from patent US5391540A, “Substituted pyridine compounds” (Rohm and Haas Company, priority 1993, dated 1995).
# Experiments:
# Assay type in all cases: in vivo
# Barnyardgrass = assay: Pre-emergent herbicidal activity (Table A); conditions: Echinochloa crus-galli, pre-emergence, Bygr, 11.2 kg/ha, 10-14 days, read-out: herbicidal rating (% inhibition)
# How it was run: (§1)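 Seeds or perennial propagules set on compacted topsoil, then covered with soil mixed with a known amount of test compound applied in acetone or water carrier. Ratings assigned on a scale based on percent inhibition of each species.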
# Cocklebur = assay: Pre-emergent herbicidal activity (Table A); conditions: Xanthium strumarium, pre-emergence, Cobu, 11.2 kg/ha, 10-14 days, read-out: herbicidal rating (% inhibition)
# How it was run: as §1
# Downy Brome = assay: Pre-emergent herbicidal activity (Table A); conditions: Bromus tectorum, pre-emergence, Dobr, 11.2 kg/ha, 10-14 days, read-out: herbicidal rating (% inhibition)
# How it was run: as §1
# Morningglory = assay: Pre-emergent herbicidal activity (Table A); conditions: Ipomoea, pre-emergence, Mogl, 11.2 kg/ha, 10-14 days, read-out: herbicidal rating (% inhibition)
# How it was run: as §1
# Velvetleaf = assay: Pre-emergent herbicidal activity (Table A); conditions: Abutilon theophrasti, pre-emergence, Vele, 11.2 kg/ha, 10-14 days, read-out: herbicidal rating (% inhibition)
# How it was run: as §1
# Yellow Nutsedge = assay: Pre-emergent herbicidal activity (Table A); conditions: Cyperus, pre-emergence, Yens, 11.2 kg/ha, 10-14 days, read-out: herbicidal rating (% inhibition)
# How it was run: as §1
# Bygr = assay: plant injury after spraying emerged plants (Table D); design: scale not given here
# Excerpt: (§2) Topsoil (silt loam) is sieved through a screen having 1.27 cm openings. […] This mixture is steam sterilized and then placed in aluminum pans 6.985 cm deep having ten holes in the bottom each 0.635 cm in diameter. The soil mixture is compacted to a depth of 1.27 cm. from the top of the pan. A predetermined number of seeds of each of several dicotyledonous and monocotyledonous annual plant species and/or vegetative propagules for the perennial plant species are placed on the soil and pressed into the soil surface. The seeds and/or vegetative propagules are covered with 1.27 cm of a mixture of 50% topsoil and 50% of a mixture of Canadian sphagnum peat moss, vermiculite and a wetting agent. The pans are then placed on a capillary mat on a greenhouse bench and subirrigated as needed.
# (§3) In the following Table D the legends used to identify the plant species are the same as those used in the preceding Table B.
# Cobu = assay: as above; design: scale not given here
# Excerpt: as §2, §3
# Corn = assay: as above; design: scale not given here
# Excerpt: as §2, §3
# Grft = assay: as above; design: scale not given here
# Excerpt: as §2, §3
# Grso = assay: as above; design: scale not given here
# Excerpt: as §2, §3
# Lacg = assay: as above; design: scale not given here
# Excerpt: as §2, §3
# Rice = assay: as above; design: scale not given here
# Excerpt: as §2, §3
# Sobe = assay: as above; design: scale not given here
# Excerpt: as §2, §3
# Whez = assay: as above; design: scale not given here
# Excerpt: as §2, §3
# Dobr = assay: as above
# Excerpt: Topsoil (silt loam) is sieved through a screen having 1.27 cm openings. In some of the tests the soil was mixed with fertilizer (1225 g/cu. m of 12/5/9 containing isobutylidene diurea), while in other tests the fertilizer was omitted. This mixture is steam sterilized and then placed in aluminum pans 6.985 cm deep having ten holes in the bottom each 0.635 cm in diameter. The soil mixture is compacted to a depth of 1.27 cm. from the top of the pan. A predetermined number of seeds of each of several dicotyledonous and monocotyledonous annual plant species and/or vegetative propagules for the perennial plant species are placed on the soil and pressed into the soil surface. The seeds and/or vegetative propagules are covered with 1.27 cm of a mixture of 50% topsoil and 50% of a mixture of Canadian sphagnum peat moss, vermiculite and a wetting agent. The pans are then placed on a capillary mat on a greenhouse bench and subirrigated as needed. After the plants reach the desired stage (9 to 14 days, 1 to 3 true leaf stage), each pan (except the control pans) is removed to a spraying chamber and sprayed by means of an atomizer, operating at a spray pressure of 170.3 kPa ([…]) at the application rates noted in Table D. In the spray solution is an amount of an emulsifying agent mixture (35% butylamine salt of dodecylbenzenesulfonic acid and 65% tall oil condensed with ethylene oxide in the ratio of 11 mols of ethylene oxide/mol of tall oil) to give a spray solution or suspension. The spray solution or suspension contains a sufficient amount of the candidate chemical in order to give application rates of the active ingredient corresponding to those shown in Table D below while applying a total amount of solution or suspension equivalent to 1870 L/Ha (200 gallons/acre). The pans are returned to the greenhouse and watered as before and the injury to the plants as compared to the control pans is observed at approximately 10-14 days (usually 11 days).
# as §3
compound,measurement,setting,value
"COC(=O)c1c(O)nc(C(F)(F)F)c(C(=O)OC)c1CC(C)C [Compound 1, 3,5-pyridinedicarboxylic acid, 2-hydroxy-4-(2-methylpropyl)-6-(trifluoromethyl)-, dimethyl ester]",inhibition at 11200 g/ha,Barnyardgrass,0 to 24%
same,inhibition at 11200 g/ha,Cocklebur,0 to 24%
same,inhibition at 11200 g/ha,Downy Brome,0 to 24%
same,inhibition at 11200 g/ha,Morningglory,0 to 24%
same,inhibition at 11200 g/ha,Velvetleaf,0 to 24%
same,inhibition at 11200 g/ha,Yellow Nutsedge,0 to 24%
same,"plant injury rating, Bygr",Bygr; 0.0701 kg/ha,0
same,"plant injury rating, Bygr",Bygr; 1.1210 kg/ha,1
same,"plant injury rating, Cobu",Cobu; 0.0701 kg/ha,0
same,"plant injury rating, Cobu",Cobu; 0.2803 kg/ha,0
same,"plant injury rating, Cobu",Cobu; 1.1210 kg/ha,0
same,"plant injury rating, Cobu",Cobu; 5.3808 kg/ha,4
same,"plant injury rating, Corn",Corn; 0.0701 kg/ha,0
same,"plant injury rating, Corn",Corn; 0.2803 kg/ha,0
same,"plant injury rating, Corn",Corn; 1.1210 kg/ha,2
same,"plant injury rating, Corn",Corn; 5.3808 kg/ha,2
same,"plant injury rating, Grft",Grft; 0.0701 kg/ha,0
same,"plant injury rating, Grft",Grft; 0.2803 kg/ha,0
same,"plant injury rating, Grso",Grso; 0.0701 kg/ha,0
same,"plant injury rating, Grso",Grso; 0.2803 kg/ha,0
same,"plant injury rating, Grso",Grso; 1.1210 kg/ha,0
same,"plant injury rating, Lacg",Lacg; 0.0701 kg/ha,3
same,"plant injury rating, Lacg",Lacg; 1.1210 kg/ha,3
same,"plant injury rating, Lacg",Lacg; 5.3808 kg/ha,3
same,"plant injury rating, Rice",Rice; 0.0701 kg/ha,0
same,"plant injury rating, Rice",Rice; 0.2803 kg/ha,0
same,"plant injury rating, Rice",Rice; 1.1210 kg/ha,0
same,"plant injury rating, Sobe",Sobe; 0.2803 kg/ha,2
same,"plant injury rating, Sobe",Sobe; 1.1210 kg/ha,1
same,"plant injury rating, Sobe",Sobe; 5.3808 kg/ha,3
same,"plant injury rating, Whez",Whez; 0.0701 kg/ha,0
same,"plant injury rating, Whez",Whez; 0.2803 kg/ha,0
same,"plant injury rating, Whez",Whez; 1.1210 kg/ha,0
same,"plant injury rating, Whez",Whez; 5.3808 kg/ha,0
same,"plant injury rating, Dobr",Dobr; 0.0701 kg/ha,0
same,"plant injury rating, Dobr",Dobr; 0.2803 kg/ha,0
same,"plant injury rating, Dobr",Dobr; 1.1210 kg/ha,0
same,"plant injury rating, Dobr",Dobr; 5.3808 kg/ha,0
